Measured values reported in patent publication EP0343268A1, “Pharmaceutical composition and process for preparing the same” (BIOGAL GYOGYSZERGYAR, priority 1988, dated 1989).

Tests used:
[1] = system: pathogenic microorganisms occurring in the discharges of patients suffering from chronic otitis (otitis media chronica); test: Treatment of ear discharges by antibacterial agents (sensitivity of the pathogens); type: cell-based
Experimental: In the Department for Qtorhinolaryngology of the Medical University of Debrecen, adult and child patients were examined to identify the types of pathogenic microorganisms occurring in the discharges of patients suffering from chronic otitis (otitis media chronica); the discharges of 510 patients were analyzed for the bacterial infection.

[2] = In vitro mucolytic effect on ear discharges
external otitis = test: Single-ingredient treatment of patients with external otitis; type: in vivo; details: 1% solution
Source text: (§1) Several compositions according to the invention were also studied with omitting one active ingredient of the composition in order to support the progressive character of the multi-active-component type composition according to the invention. These experiments led to the following results.

[3] = in the presence of sulfhydryl-containing compounds, particularly acetylcysteine; cited from earlier work
[4] = system: chronic mesotympanic otitis; test: Single-ingredient treatment of patients with chronic mesotympanic otitis; type: in vivo; details: 1% solution
Source text: as §1

[5] = cited from earlier work
[6] = cited from earlier work; remark: listed apart in the source
[7] = system: several gram-positive and gram-negative bacteria such as Pseudomonas aeruginosa; details: in vitro conditions; cited from earlier work
[8] = Single-ingredient treatment of patients (steroid alone; sulfhydryl compound solution alone); type: in vivo; details: aqueous solutions (pH 7.0±0.2) of 3 to 19%, preferably 5 to 15%
Source text: as §1
An objective improvement was observed only in those cases involving large eardrum defects, strong hyperaemia and significant mucous membrane hypertrophy of the tympanic cavity as well as in the cases of external eczematous otitis (otitis externa ekzematosa).
The dilution of the discharge was not observed during the use,however, the amount of the discharge was somewhat reduced in spite of the decrease of its viscosity. The discharge, which was coherent and mucous in character, rather took the form of a precipitate under effect of the treatment by an acetylcysteine solution.

[9] = cited from earlier work; remark: listed apart in the source
[10] = number of cases, total number of the examinations 510

For Penicillin, which “A = therapeutically active (sensitive)” value [1, 10] is on record?
Its value is 67.

What about the “M = moderately active” value [1, 10] of the same compound?
Its value is 22.

And the “R = inactive (resistant)” value [1, 10]?
Its value is 218.

And the “Act. = activity %” value ([1]; share of examined cases moderately active or active)?
The value was 29.4%.

For `CC(C)(CO)[C@@H](O)C(=O)NCCC(=O)NCCS` [pantetheine], which mucolytic effect [2] is on record?
The mucolytic effect was “a mucolytic effect can also be shown”.

With `NC[C@H]1O[C@H](O[C@H]2[C@H](O)[C@@H](O[C@H]3O[C@H](CO)[C@@H](O)[C@H](N)[C@H]3O)[C@H](N)C[C@@H]2N)[C@H](N)C[C@@H]1O` [Tobramycin] as the compound, how does the “substantial improvement of the pathological processes” value (external otitis) read?
Its value is no more than 40%.

And the “absorption from the stomach” value [3]?
The value was “not disadvantageously influenced”.

And the “substantial improvement of the pathological processes” value [4]?
The value was “about 60 % of patients”.

Which “absorption from the stomach” value [3] does the source give for `CC[C@H]1OC(=O)[C@H](C)[C@@H](O[C@H]2C[C@@](C)(OC)[C@@H](O)[C@H](C)O2)[C@H](C)[C@@H](O[C@@H]2O[C@H](C)C[C@H](N(C)C)[C@H]2O)[C@](C)(O)C[C@@H](C)C(=O)[C@H](C)[C@@H](O)[C@]1(C)O` [Erythromycin] here?
Its value is “not disadvantageously influenced”.

With `N[C@@H](CSCC(=O)O)C(=O)O` [carbocysteine] as the compound, how does the mucolytic effect [2] read?
The mucolytic effect was “a mucolytic effect can also be shown”.

For Neomycin, which “absorption from the stomach” value [3] is on record?
The value was “not disadvantageously influenced”.

Which “absorption from the stomach” value [3] does the source give for `C[C@H]1c2cccc(O)c2C(O)=C2C(=O)[C@]3(O)C(O)=C(C(N)=O)C(=O)[C@@H](N(C)C)[C@@H]3[C@@H](O)[C@@H]21` [doxycyclin] here?
The value was “not disadvantageously influenced”.

For `N[C@@H](CCC(=O)N[C@@H](CS)C(=O)NCC(=O)O)C(=O)O` [glutathione], which mucolytic effect [2] is on record?
Its mucolytic effect is “a mucolytic effect can also be shown”.

Which “absorption from the stomach” value [3] does the source give for `CC1(C)S[C@@H]2[C@H](NC(=O)[C@H](N)c3ccc(O)cc3)C(=O)N2[C@H]1C(=O)O` [amoxicillin] here?
Its value is “not disadvantageously influenced”.

With `O[C@H](CS)[C@@H](O)CS` [dithioerythritol] as the compound, how does the mucolytic effect [2] read?
Its mucolytic effect is “a mucolytic effect can also be shown”.

With `O=C(O)C(S)C(S)C(=O)O` (stereo not shown) [dimercaptosuccinate] as the compound, how does the mucolytic effect [2] read?
The mucolytic effect was “a mucolytic effect can also be shown”.

With `CC(=O)N[C@@H](CS)C(=O)O` [acetylcysteine, N-acetyl-L-cysteine] as the compound, how does the LD₅₀ in mice [5] read?
The LD₅₀ in mice was 3000 mg/kg of body-weight.

And the LD₅₀ in rats [6]?
The LD₅₀ in rats was 6000 mg/kg of body-weight.

What about the “effect with several antibiotics” value [7] of the same compound?
The value was “synergistic effect”.

And the inflammatory symptomes [8]?
The inflammatory symptomes was “moderated”.

And the “viscosity of the discharge” value [8]?
Its value is “advantageously influenced”.

And the LD₅₀ in dogs [9]?
Its LD₅₀ in dogs is 1000 mg/kg of body-weight.
